From US20110053773A1, “METHODS OF IMPROVING NUTRITIONAL VALUE OF PLANTS” (UNIVERSITY OF TENNESSEE RESEARCH FOUNDATION, priority 2009, published 2011)

How the values were obtained:
Format in all cases: in vivo
[1] = test system: sweet corn cultivars 'Merit', 'Temptation', 'Incredible'; experiment: Visual leaf tissue bleaching of sweet corn (Example 3, Table 9); conditions: mesotrione 105, atrazine 560 g ai/ha
Procedure: (§1) Studies were conducted in a field in Knoxville, Tenn. to ascertain the growth, stress tolerance and nutritional quality differences following postemergence applications of herbicides mesotrione and atrazine, alone and in mixtures together, on the young sweet corn cultivars: ‘Merit’ (yellow-kernel sensitive genotype), ‘Temptation’ (bicolor tolerant genotype), and ‘Incredible’ (yellow-kernel moderately sensitive genotype).
(§2) Herbicide treatments were applied as follows: 1) untreated control; 2) mesotrione (meso) at 105 g ai/ha EPOST; 3) mesotrione at 105+atrazine at 560 g ai/ha EPOST; 4) atrazine at 560 g ai/ha EPOST; 5) mesotrione at 105 g ai/ha LPOST; 6) mesotrione at 105+atrazine at 560 g ai/ha LPOST; and 7) atrazine at 560 g ai/ha LPOST. Visual ratings of plant growth were taken during season, and kernels for carotenoids were measured at harvest.

[2] = test system: sweet corn (Zea mays var. rugosa) cultivar 'Incredible'; experiment: Content analysis of sweet corn ears: crude protein, amino acids, detergent fiber, fatty acids, minerals (Example 1); conditions: POST at b59 rates; every treatment incl. check also got atrazine 560 g ai/ha + COC 1% v/v; relative to treated check (atrazine), check=0
Source text: Herbicide treatments were applied in a water carrier at 23 gallons of solution per acre on a field site near Knoxville, Tenn. and Painter, Va. Treatments include the following: 1) nicosulfuron at 35 g ai/ha (Accent); 2) mesotrione at 105 g ai/ha (Callisto); 3) nicosulfuron at 35 g ai/ha+mesotrione at 105 g ai/ha (Callisto+Accent); 4) tembotrione at 92 g ai/ha+isoxadifen-ethyl at 46 g ai/ha (Laudis); 5) topramezone at 15 g ai/ha (Impact); 6) nicosulfuron at 35 g ai/ha+isoxadifen-ethyl at 9 g ai/ha (Accent Q); 7) nicosulfuron at 35 g ai/ha+isoxadifen-ethyl at 9 g ai/ha+topramezone at 15 g ai/ha (Accent Q+Impact); 8) nicosulfuron 35 g ai/ha+isoxadifen-ethyl at 9 g ai/ha+mesotrione at 105 g ai/ha (Accent Q+Callisto); 9) treated check (atrazine or Aatrex). All treatments included a PRE application of atrazine plus metolachlor in order to maintain weed free conditions. In addition, all POST treatments (including the treated check) included atrazine at 560 g ai/ha and crop oil concentrate at 1% v/v. […] Sweet corn was harvested from the center two rows of each four row plot and weighed in the husk.

[3] = test system: sweet corn cultivars 'Merit', 'Temptation', 'Incredible'; experiment: Kernel carotenoids of sweet corn after mesotrione and atrazine (Example 3); set-up: Kernel carotenoids: Lutein / Kernel carotenoids: Zeaxanthin: unit not given here; conditions: mesotrione 105, atrazine 560 g ai/ha
Procedure: as §1, §2

[4] = 'Incredible' moderately sensitive genotype, EPOST
[5] = 'Incredible' moderately sensitive genotype, LPOST
[6] = 'Merit' sensitive genotype, EPOST
[7] = 'Merit' sensitive genotype, LPOST

Question: What does the source list for CCNc1nc(Cl)nc(NC(C)C)n1 [Atrazine*AATREX, atrazine]?
Answer: Leaf Tissue Visual Bleaching (%) ([1]; ‘Incredible’, 7 DAT, EPOST): 13%; Leaf Tissue Visual Bleaching (%) ([1]; ‘Incredible’, 7 DAT, LPOST): 0%; Leaf Tissue Visual Bleaching (%) ([1]; ‘Incredible’, 14 DAT, EPOST): 13%; Leaf Tissue Visual Bleaching (%) ([1]; ‘Incredible’, 14 DAT, LPOST): 0%; Leaf Tissue Visual Bleaching (%) ([1]; ‘Incredible’, 21 DAT, EPOST): 0%; Leaf Tissue Visual Bleaching (%) ([1]; ‘Incredible’, 21 DAT, LPOST): 0%; Leaf Tissue Visual Bleaching (%) ([1]; ‘Merit’, 7 DAT, EPOST): 3%; Leaf Tissue Visual Bleaching (%) ([1]; ‘Merit’, 7 DAT, LPOST): 0%; Leaf Tissue Visual Bleaching (%) ([1]; ‘Merit’, 14 DAT, EPOST): 2%; Leaf Tissue Visual Bleaching (%) ([1]; ‘Merit’, 14 DAT, LPOST): 0%; Leaf Tissue Visual Bleaching (%) ([1]; ‘Merit’, 21 DAT, EPOST): 0%; Leaf Tissue Visual Bleaching (%) ([1]; ‘Merit’, 21 DAT, LPOST): 0%; Acid DF [2]: 0 % of check; Alanine [2]: 0 % of check; Amino Acid [2]: 0 % of check; Aspartic ac [2]: 0 % of check; Cysteine [2]: 0 % of check; Glutamic ac [2]: 0 % of check; Glycine [2]: 0 % of check; Isoleucine [2]: 0 % of check; Leucine [2]: 0 % of check; Lysine [2]: 0 % of check; Methionine [2]: 0 % of check; Neutral DF [2]: 0 % of check; Proline [2]: 0 % of check; Protein [2]: 0 % of check; Threonine [2]: 0 % of check; Valine [2]: 0 % of check; calcium [2]: 0 % of check; copper [2]: 0 % of check; iron [2]: 0 % of check; magnesium [2]: 0 % of check; manganese [2]: 0 % of check; mon fattyac [2]: 0 % of check; phosphorous [2]: 0 % of check; polyfattyac [2]: 0 % of check; potassium [2]: 0 % of check; sat fattyac [2]: 0 % of check; sodium [2]: 0 % of check; tot fattyac [2]: 0 % of check; zinc [2]: 0 % of check; Lutein % change from untreated control [3, 4]: +7.6%; Zeaxanthin % change from untreated control [3, 4]: −0.0%; Kernel carotenoids: Lutein ([3]; 'Incredible' moderately sensitive genotype, EPOST, untreated 0.328): 0.353; Kernel carotenoids: Zeaxanthin ([3]; 'Incredible' moderately sensitive genotype, EPOST, untreated 0.448): 0.447; Lutein % change from untreated control [3, 5]: +6.0%; Zeaxanthin % change from untreated control [3, 5]: +1.3%; Kernel carotenoids: Lutein ([3]; 'Incredible' moderately sensitive genotype, LPOST, untreated 0.328): 0.347; Kernel carotenoids: Zeaxanthin ([3]; 'Incredible' moderately sensitive genotype, LPOST, untreated 0.448): 0.454; Kernel carotenoids: Lutein [3, 6]: 0.692; Lutein % change from untreated control [3, 6]: +9.5%; Zeaxanthin % change from untreated control [3, 6]: +10.8%; Kernel carotenoids: Zeaxanthin ([3]; 'Merit' sensitive genotype, EPOST, untreated 0.509): 0.564; Kernel carotenoids: Lutein [3, 7]: 0.664; Lutein % change from untreated control [3, 7]: +5.1%; Zeaxanthin % change from untreated control [3, 7]: +8.1%; Kernel carotenoids: Zeaxanthin ([3]; 'Merit' sensitive genotype, LPOST, untreated 0.509): 0.550
